Reference: patent US7285564B2, “Substituted 4-amino-1-(pyridylmethyl)piperidine and related compounds” (Theravance, Inc., priority 2002, dated 2007)

Biological target: T1, hM2 receptor (Homo sapiens, UniProt P08172)
T1 construct: expressed in transfected cells; membranes prepared
T1 sequence (P08172 1-466): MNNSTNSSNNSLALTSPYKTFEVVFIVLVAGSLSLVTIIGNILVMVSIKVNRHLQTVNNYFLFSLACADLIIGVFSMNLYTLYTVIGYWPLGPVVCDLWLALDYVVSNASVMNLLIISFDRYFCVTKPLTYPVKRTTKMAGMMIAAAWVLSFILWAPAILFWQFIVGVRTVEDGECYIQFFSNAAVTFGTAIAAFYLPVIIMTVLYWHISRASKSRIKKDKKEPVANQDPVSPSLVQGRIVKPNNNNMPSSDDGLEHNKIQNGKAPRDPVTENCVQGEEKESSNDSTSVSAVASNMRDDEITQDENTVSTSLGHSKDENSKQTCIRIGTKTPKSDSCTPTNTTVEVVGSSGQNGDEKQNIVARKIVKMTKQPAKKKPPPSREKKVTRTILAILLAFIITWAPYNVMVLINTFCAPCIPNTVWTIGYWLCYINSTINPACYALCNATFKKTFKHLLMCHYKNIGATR
Experiment: Blockade of agonist-mediated GTPγ[35S] binding
Format: biochemical
Details: membranes of CHO-K1 cells expressing hM2; read-out: Ki for blockade of carbachol-mediated GTPγ[35S] binding
Protocol: In this assay, the functional potency of a test compound was determined by measuring the ability of the test compound to block carbachol-stimulated GTPγ[^35S] binding in CHO-K1 cells expressing the hM2 receptor.
CHO-K1 cells stably expressing the hM2 muscarinic receptor were grown in medium consisting of Hams F-12 media supplemented with 10% Fetal Bovine Serum and 500 μg/ml of Geneticin (G-418). Cells were incubated in a 5% CO2, humidified incubator at 37° C. Cells were grown to confluence and harvested with dPBS+2 mM EDTA and pelleted by centrifugation at 250×g for 10 minutes.
Cells from the centrifuged pellets were resuspended in homogenization buffer (10 mM HEPES, 10 mM EDTA, pH 7 at 4° C.). […]
To determine the ability of a test compound to inhibit carbachol-stimulated GTPγ[^35S] binding, the following was added to each well of 96 well plates: 25 μL of assay buffer with […] and GDP, 25 μL of diluted test compound (prepared as described above), and 25 μL CHO cell membranes expressing the hM2 receptor. […] After the pre-incubation period, 25 μL of carbachol at the final concentration of its EC90 value determined earlier in the day was added to each plate. […]
Test compound potency (IC50) was determined using iterative curve fitting (GraphPad Prism 3.0 software; single site competition curve). […]

Ki: < 1 nM
Structure (SMILES): COc1ccncc1CN1CCC(N(CCCCCCCN2CC[C@@H](C(C(N)=O)(c3ccccc3)c3ccccc3)C2)C(C)C)CC1 [Example 1]
